Assays:
aortic sterol content = assay: Decrease of aortic sterol content without effecting serum sterol in cholesterol-fed cockerels; type: in vivo, Day-old Cockerels; set-up: key: Active: Compounds which statistically decrease the aortic sterol content without having an effect on serum sterol are considered to be active; settings: 525 mg. test compound and 20 g. cholesterol per kg. of diet, 14 days
Experimental: The compounds were further tested for their ability to decrease aortic sterol content without effecting serum sterol.
Day-old Cockerels were placed on diets consisting of pullet starter mash supplemented with either 20 g. cholesterol (control group) or 20 g. cholesterol and 525 mg. test compound (drug-treated group) per kg. of diet.
For the control diet, 20 g. of cholesterol was dissolved in 200 ml. of chloroform, mixed into one kg. of pullet starter mash and then the choloroform was removed by evaporation.
For the drug-treatment group, 525 mg. of the test compound was dissolved in 100 ml. of chloroform, mixed into a diet prepared as described above and then the chloroform was evaporated.
The cockerels were housed three per cage and given water and their respective diet ad libitum for 14 days. Blood was collected by cardiac puncture and the serum was saponified [Trinder, P., Analyst, 77, 321 (1952)] and extracted and the cholesterol content determinted [Zlatkis, A., et al., J. Lab Clin Med., 41 486 (1953)]. The aortae were removed, cleaned of adventitial tissue and the sterol content determined according to the above procedures. Compounds which statistically decrease the aortic sterol content without having an effect on serum sterol are considered to be active.

[1] = target: T1, fatty acyl CoA:-cholesterol acyl transferase (ACAT) (Rattus norvegicus, UniProt O70536); assay: Inhibition of enzymatic esterification of cholesterol (ACAT inhibition), rat adrenal supernatant; type: biochemical; settings: final concentration 5.2 μg./ml., 37° C., 30 minutes
T1 construct: The supernatant, containing the microsomal fraction, served as the source of the cholesterol-esterifying enzyme; from tissue; host or cells: rat adrenals, 1000 x g supernatant containing the microsomal fraction
T1 sequence (O70536 1-545): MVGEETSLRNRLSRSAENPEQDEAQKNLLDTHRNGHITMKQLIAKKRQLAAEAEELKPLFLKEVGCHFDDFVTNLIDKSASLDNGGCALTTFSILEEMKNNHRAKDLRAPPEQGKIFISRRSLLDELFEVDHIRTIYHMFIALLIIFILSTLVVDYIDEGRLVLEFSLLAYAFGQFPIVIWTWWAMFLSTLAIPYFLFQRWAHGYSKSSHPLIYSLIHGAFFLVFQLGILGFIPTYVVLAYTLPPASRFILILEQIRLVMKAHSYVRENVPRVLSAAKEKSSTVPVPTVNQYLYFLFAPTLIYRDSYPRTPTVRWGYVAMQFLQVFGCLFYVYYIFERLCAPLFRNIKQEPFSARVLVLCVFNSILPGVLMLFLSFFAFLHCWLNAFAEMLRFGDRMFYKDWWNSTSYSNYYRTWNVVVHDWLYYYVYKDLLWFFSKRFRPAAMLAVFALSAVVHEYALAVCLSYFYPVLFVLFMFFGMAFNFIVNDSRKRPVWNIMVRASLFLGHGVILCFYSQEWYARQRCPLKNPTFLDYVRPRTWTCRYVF
Experimental: The compounds of the present invention were tested for their ability to inhibit the enzymatic esterification of cholesterol according to the procedure of Hashimoto, et al., Life Sci., 12(Part II), 1-12 (1973).
Rat adrenals were homogenized in 0.2 M monobasic potassium phosphate buffer, pH 7.4, and centrifuged at 1000 times gravity for 15 minutes at 5° C. The supernatant, containing the microsomal fraction, served as the source of the cholesterol-esterifying enzyme, fatty acyl CoA:-cholesterol acyl transferase (ACAT). A mixture comprising 50 parts of adrenal supernatant, 10 parts of bovine serum albumin (50 mg./ml.), 3 parts of test compound (final concentration 5.2 μg./ml.) and 500 parts of buffer were preincubated at 37° C. for 10 minutes, following which 20 parts of oleoyl […] were added and the final mixture was incubated at 37° C. for 30 minutes. A control mixture, omitting the test compound, was prepared and treated in the same manner. The lipids from the incubation mixture were extracted into an organic solvent and separated by thin-layer chromatography. The cholesterol ester fraction was counted in a scintillation counter. A statistically significant inhibition of the ACAT enzyme is the criterion for activity.

[2] = tested on: serum cholesterol and triglyceride; assay: Lowering of serum lipid levels, oral administration in diet to rats; type: in vivo, male rats COBS, CD, SD strain; settings: 0.1% of test compound by weight in diet, 5 days, vs control rats
Experimental: The compounds were also tested for their ability to lower lipid levels in mammals. The compounds were administered orally admixed with diet to groups of four male rats COBS, CD, SD strain from Charles River Breeding Laboratories, Inc., Wilmington, Mass. A control group of eight rats was maintained on the diet alone; test groups were maintained on the diet plus 0.1% of test compound by weight. After 5 days treatment, serum cholesterol and triglyceride concentrations were determined by direct enzymatic procedures using a Centrifichem® System 400 autoanalyzer (Union Carbide Co.). Cholesterol concentrations were determined by the combined cholesterol esterasecholesterol oxidase procedure of Roeschlau, et al., Zeit. Klin. Chem. Klin. Biochem., 12, 226 (1974). Triglycerides were determined by the combined method of lipase catalyzed hydrolysis of triglycerides to glycerol and free fatty acids [Bucolo, G. and David, H., Clin. Chem., 19, 476 (1973) and Wahlefeld, A. W., in "Methods of Enzymatic Analysis," Vol, 4, Bergmeyer, H. D., Editor, Academic Press, New York, N.Y. (1974), pp. 1831-1835] and the enzymatic oxidation of the glycerol which leads to the production of colored formazan [Stavropoulos, W. S. and Crouch, R. D., Clin. Chem., 20, No. 7, 857 (1974)]. […] The compounds are considered active if they produce a statistically significant lowering of either sterol or triglycerides.

| inhibition at 5.2 µg/mL [1] [%] | SMILES | Result (decrease of aortic sterol content without effect on serum sterol) (aortic sterol content) | % Lowering of Serum Triglycerides [2] [%] | % Lowering of Serum Sterol [2] [%] |
| --- | --- | --- | --- | --- |
| – | O=C(Nc1c(Cl)cccc1Cl)N1CCN(c2cnccn2)CC1 [2',6'-Dichloro-4-(2-pyrazinyl)-1-piperazinecarboxanilide] | Active | – | – |
| – | Cc1ccccc1CC(=O)N1CCN(c2cnccn2)CC1 [1-(o-Methylphenylacetyl)-4-(2-pyrazinyl)piperazine] | Active | – | – |
| 54.1 | CC(C)(Oc1ccc(Cl)cc1)C(=O)N1CCN(c2cnccn2)CC1 [1-[2-(p-Chlorophenoxy)-2-methylpropionyl]-4-(2-pyrazinyl)piperazine] | – | 42 | – |
| 38.1 | COc1cncc(N2CCN(C(=O)Cc3ccccc3)CC2)n1 [1-(6-Methoxy-2-pyrazinyl)-4-phenylacetylpiperazine] | – | 56 | – |
| 47.4 | O=C(CCCCC(=O)N1CCN(c2cnccn2)CC1)c1ccc(Cl)cc1 [1-[5-(p-Chlorobenzoyl)valeryl]-4-(2-pyrazinyl)piperazine] | – | 45 | – |
| 30.5 | CC(Oc1ccccc1)C(=O)N1CCN(c2cnccn2)CC1 (stereo not drawn) [1-(2-Phenoxypropionyl)-4-(2-pyrazinyl)piperazine] | – | 62 | – |
| 34.6 | O=C(Cc1ccccc1)N1CCN(c2ccccc2)CC1 [1-phenyl-4-phenylacetylpiperazine, 1-Phenyl-4-phenylacetylpiperazine] | Active | – | – |
| 36.4 | O=C(Cc1ccc([N+](=O)[O-])cc1)N1CCN(c2cnccn2)CC1 [1-(p-Nitrophenylacetyl)-4-(2-pyrazinyl)piperazine] | Active | – | – |
| 38.3 | O=C(Cc1ccc(Cl)c(Cl)c1)N1CCN(c2cnccn2)CC1 [1-(3,4-Dichlorophenylacetyl)-4-(2-pyrazinyl)piperazine] | Active | – | – |
| – | Cc1ccc(CC(=O)N2CCN(c3cnccn3)CC2)cc1 [1-(2-Pyrazinyl)-4-(p-tolylacetyl)piperazine] | Active | 49 | – |
| – | O=C(c1ccccc1C(F)(F)F)N1CCN(c2cnccn2)CC1 [1-(2-Pyrazinyl)-4-(α,α,α-trifluoro-o-toluoyl)piperazine] | Active | – | – |
| 68.9 | O=C(CCCCCc1ccc(Cl)cc1)N1CCN(c2cnccn2)CC1 [1-[6-(p-Chlorophenyl)hexanoyl]-4-(2-pyrazinyl)piperazine] | – | 30 | – |

| SMILES | inhibition at 5.2 µg/mL [1] [%] | Result (decrease of aortic sterol content without effect on serum sterol) (aortic sterol content) | % Lowering of Serum Triglycerides [2] [%] | % Lowering of Serum Sterol [2] [%] |
| --- | --- | --- | --- | --- |
| O=C(N1CCN(c2cnccn2)CC1)C(F)(F)C(F)(F)C(F)(F)C(F)(F)C(F)(F)C(F)(F)C(F)(F)F [1-(Pentadecafluorooctanoyl)-4-(2-pyrazinyl)piperazine] | 39 | – | 74 | 47 |
| O=C(Cc1ccccc1)N1CCN(c2ccc3ccccc3n2)CC1 [1-phenylacetyl-4-(2-quinolyl)piperazine, 1-Phenylacetyl-4-(2-quinolyl)piperazine] | 89.7 | – | 53 | 69 |

Source: patent US4439606A, “Antiatherosclerotic 1-piperazinecarbonyl compounds” (American Cyanamid Company, priority 1982, dated 1984)
